Results as given in patent US6875761B2 (Eisai Co., Ltd., priority 1997, dated 2005).
Counter-ions that a name gives are not always drawn.

Structure (SMILES)	melting point
CCN1CCN(c2nc(-c3ccc(CCC(C)O)cc3)cc3ccccc23)CC1 (centres unmarked) (as salt: oxalate) [Example 22, 1-(4-ethylpiperazin-1-yl)-3-[4-(3-hydroxybutyl)phenyl]isoquinoline oxalate]	193 to 194 °C
CCN1CCN(c2nc(-c3ccc(OCCCO)cc3)cc3sccc23)CC1 (as salt: hydrochloride) [Example 462, 4-(4-ethylpiperazin-1-yl)-6-[4-(3-hydroxypropoxy)phenyl]thieno[3,2-c]pyridine dihydrochloride]	102 to 104 °C
CCN1CCN(c2nc(-c3ccc(OCCO)nc3)cc3ccsc23)CC1 (as salt: oxalate) [Example 268, 5-[2-(2-hydroxyethoxy)pyridin-5-yl]-7-(4-ethylpiperazin-1-yl)thieno[2,3-c]pyridine Oxalate]	124 to 125 °C
CCN1CCN(c2nc(-c3cccc(OC)c3)cc3ccccc23)CC1 (as salt: hydrochloride) [Example 9, 1-(4-ethylpiperazin-1-yl)-3-(3-methoxyphenyl)isoquinone Dihydrochloride]	108 to 110 °C
CCN1CCN(c2nc(-c3ccc(CCC(C)(C)O)cc3)cc3ccsc23)CC1 (as salt: hydrochloride) [Example 439, 7-(4-ethylpiperazin-1-yl)-5-[4-(3-hydroxy-3-methylbutyl)phenyl]thieno[2,3-c]pyridine dihydrochloride]	122 to 133.5 °C
CCN1CCN(c2nc(-c3ccc(OC)c(CCCO)c3)cc3ccsc23)CC1 (as salt: oxalate) [Example 261, 5-[3-(3-hydroxypropyl)-4-methoxyphenyl]-7-(4-ethylpiperazin-1-yl)thieno[2,3-c]pyridine Oxalate]	98 to 102 °C
CCN1CCN(c2nc(-c3ccc(N4CCSCC4)nc3)cc3ccccc23)CC1 (as salt: hydrochloride) [Example 150, 1-(4-ethylpiperazin-1-yl)-3-[2-(thiomorpholin-4-yl)pyridin-5-yl]isoquinoline trihydrochloride]	210 °C

Other lines, results leading:

melting point	Structure (SMILES)
180 to 182 °C	CCN1CCN(c2nc(C=C(COC)c3ccccc3)cc3ccccc23)CC1 (stereo in doubt) (as salt: oxalate) [Example 208, 3-[(E)-2-Methoxymethyl-2-Phenylethenyl]-1-(4-Ethylpiperazin-1-Yl)Isoquinoline Oxalate]
130 to 132 °C	CCN1CCN(c2nc(-c3ccc(OCCO)c(OCCO)c3)cc3ccccc23)CC1 (as salt: hydrochloride)
232 to 234 °C	CCN1CCN(c2nc(-c3cc(OCCO)cc(OCCO)c3)cc3ccccc23)CC1 (as salt: hydrochloride) [Example 38, 3-[3,5-di(2-hydroxyethoxy)phenyl]-1-(4-ethylpiperazin-1-yl)isoquinoline hydrochloride]
194 to 195 °C	CCN1CCN(c2nc(-c3ccc(CC(C)(C)CO)cc3)cc3ccccc23)CC1 (as salt: oxalate) [Example 389, 1-(4-Ethylpiperazin-1-yl)-3-[4-(3-Hydroxy-2,2-Dimethylpropyl)Phenyl]Isoquinoline Oxalate]
160 to 160.5 °C	CCNC(=O)c1ccc(-c2cc3ccccc3c(N3CCN(CC)CC3)n2)cc1 (as salt: hydrochloride) [Example 364, 1-(4-ethylpiperazin-1-yl)-3-[4-(N-ethylcarbamoyl)phenyl]isoquinoline dihydrochloride]
133 to 136 °C	CCCCNC(=O)Cc1ccc(-c2cc3ccccc3c(N3CCN(CC)CC3)n2)cc1 (as salt: hydrochloride) [Example 89, 3-(4-Butylaminocarbonylmethylphenyl)-1-(4-ethylpiperazin-1-yl)isoquinoline Hydrochloride]
220 °C (dec.)	COc1ccc(-c2cc3ccccc3c(N3CCN(C(C)C)CC3)n2)cc1 (as salt: hydrochloride)
